What was measured:
MDA-MB-468 = assay: Antiproliferative activity against PTEN-deficient human MDA-MB-468 cells after 6 days by Alamar blue assay; assay type: functional, cell-based; details: MDA-MB-468, 144 h
[1] = biological target: Phosphatidylinositol 4,5-bisphosphate 3-kinase catalytic subunit beta isoform (Homo sapiens, UniProt P42338); assay: Inhibition of PI3Kbeta-mediated AKT phosphorylation at Ser473 in PTEN-deficient human MDA-MB-468 cells after 30 mins; assay type: cell-based
Phosphatidylinositol 4,5-bisphosphate 3-kinase catalytic subunit beta isoform, sequence (P42338 whole entry, canonical isoform): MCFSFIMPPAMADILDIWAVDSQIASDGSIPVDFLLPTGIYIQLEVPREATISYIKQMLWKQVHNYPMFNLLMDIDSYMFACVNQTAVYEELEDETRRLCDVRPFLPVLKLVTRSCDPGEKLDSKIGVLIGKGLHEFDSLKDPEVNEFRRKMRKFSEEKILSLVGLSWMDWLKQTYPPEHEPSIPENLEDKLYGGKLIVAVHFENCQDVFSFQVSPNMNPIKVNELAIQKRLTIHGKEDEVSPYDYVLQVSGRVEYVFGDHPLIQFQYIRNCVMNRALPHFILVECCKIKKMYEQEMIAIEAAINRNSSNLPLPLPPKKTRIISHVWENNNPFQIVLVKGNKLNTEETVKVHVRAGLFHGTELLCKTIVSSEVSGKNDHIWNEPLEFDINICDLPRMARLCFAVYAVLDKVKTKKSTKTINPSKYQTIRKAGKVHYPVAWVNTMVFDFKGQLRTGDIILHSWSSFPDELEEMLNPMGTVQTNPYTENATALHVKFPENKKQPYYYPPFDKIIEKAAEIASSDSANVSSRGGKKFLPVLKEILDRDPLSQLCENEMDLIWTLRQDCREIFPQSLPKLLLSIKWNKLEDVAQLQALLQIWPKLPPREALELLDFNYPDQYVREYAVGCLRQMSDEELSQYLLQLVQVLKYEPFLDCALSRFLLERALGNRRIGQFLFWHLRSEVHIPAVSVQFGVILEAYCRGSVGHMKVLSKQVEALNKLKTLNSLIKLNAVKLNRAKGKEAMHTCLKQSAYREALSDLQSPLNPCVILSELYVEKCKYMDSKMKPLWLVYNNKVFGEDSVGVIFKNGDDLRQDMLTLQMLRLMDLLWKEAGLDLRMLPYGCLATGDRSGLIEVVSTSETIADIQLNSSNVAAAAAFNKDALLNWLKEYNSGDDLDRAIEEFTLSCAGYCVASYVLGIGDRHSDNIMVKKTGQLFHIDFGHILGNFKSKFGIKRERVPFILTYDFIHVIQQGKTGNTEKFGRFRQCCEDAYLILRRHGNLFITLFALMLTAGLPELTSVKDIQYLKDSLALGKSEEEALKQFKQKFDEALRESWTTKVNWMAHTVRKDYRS

## Cc1c(Cl)cccc1Cn1c(C)nc2c(C(=O)O)cc(N3CCOCC3)nc21
MDA-MB-468
  EC50: 18.1 nM
[1]
  IC50: 15.9 nM

## Cc1nc2c(C(=O)O)cc(N3CCOCC3)nc2n1Cc1cccc(Cl)c1Cl
MDA-MB-468
  EC50: 153 nM
[1]
  IC50: 41.4 nM

## Cc1c(Cn2c(C)nc3c(C(=O)O)cc(N4CCOCC4)nc32)cccc1C(F)(F)F
MDA-MB-468
  EC50: 41 nM
[1]
  IC50: 436 nM
